# Key:
# Experiment in all cases: MIC, CLSI broth microdilution, Test Example 2
# Type in all cases: cell-based
# A. baumannii SR01331 = conditions: Acinetobacter baumannii, SR01331; PER-1, OXA-23.51 ESBL- & OXA-type carbapenemase producing strain; cation-adjusted Iso-Sensitest broth containing human Apo-transferrin; 5×10^5 cfu/mL; read-out: Minimum Inhibitory Concentration (MIC) A. baumannii SR01331
# Procedure: (§1) Measurement of Minimum Inhibitory Concentration (MIC: μg/mL) was conducted according to CLSI (Clinical and Laboratory Standards Institute) method, and the amount of bacteria for inoculation was 5×10^5 cfu/mL, and cation-adjusted Iso-Sensitest broth containing human Apo-transferrin was used as a test medium, and the experiment was conducted using broth microdilution method.
# E. cloacae NCTC13464 = conditions: Enterobacter cloacae, NCTC13464; CTX-M group 9 ESBL producing strain; cation-adjusted Iso-Sensitest broth containing human Apo-transferrin; 5×10^5 cfu/mL; read-out: Minimum Inhibitory Concentration (MIC) E. cloacae NCTC 13464
# Procedure: as §1
# E. coli ATCCBAA-196 = conditions: Escherichia coli, ATCCBAA196; TEM-10 ESBL producing strain; cation-adjusted Iso-Sensitest broth containing human Apo-transferrin; 5×10^5 cfu/mL; read-out: Minimum Inhibitory Concentration (MIC) E. coli ATCC BAA-196
# Procedure: as §1
# E. coli ATCCBAA-200 = conditions: Escherichia coli, ATCCBAA200; SHV-4 ESBL producing strain; cation-adjusted Iso-Sensitest broth containing human Apo-transferrin; 5×10^5 cfu/mL; read-out: Minimum Inhibitory Concentration (MIC) E. coli ATCC BAA-200
# Procedure: as §1
# E. coli SR01337 = conditions: Escherichia coli, SR01337; TEM-1 ESBL producing strain; cation-adjusted Iso-Sensitest broth containing human Apo-transferrin; 5×10^5 cfu/mL; read-out: Minimum Inhibitory Concentration (MIC) E. coli SR01337
# Procedure: as §1
# K. pneumoniae ATCC700603 = conditions: Klebsiella pneumoniae, ATCC700603; SHV18 ESBL producing strain; cation-adjusted Iso-Sensitest broth containing human Apo-transferrin; 5×10^5 cfu/mL; read-out: Minimum Inhibitory Concentration (MIC) K. pneumoniae ATCC 700603
# Procedure: as §1
# P. aeruginosa SR01332 = conditions: Pseudomonas aeruginosa, SR01332; VIM-11 MBL producing strain (carbapenem resistance strain); cation-adjusted Iso-Sensitest broth containing human Apo-transferrin; 5×10^5 cfu/mL; read-out: Minimum Inhibitory Concentration (MIC) P. aeruginosa SR01332
# Procedure: as §1
# P. aeruginosa SR01335 = conditions: Pseudomonas aeruginosa, SR01335; VIM-1 like MBL producing strain (carbapenem resistance strain); cation-adjusted Iso-Sensitest broth containing human Apo-transferrin; 5×10^5 cfu/mL; read-out: Minimum Inhibitory Concentration (MIC) P. aeruginosa SR01335
# Procedure: as §1
SMILES,MIC (A. baumannii SR01331),MIC (E. cloacae NCTC13464),MIC (E. coli ATCCBAA-196),MIC (E. coli ATCCBAA-200),MIC (E. coli SR01337),MIC (K. pneumoniae ATCC700603),MIC (P. aeruginosa SR01332),MIC (P. aeruginosa SR01335)
"Nc1nc(/C(=N/OC(C(=O)[O-])C(=O)[O-])C(=O)N[C@@H]2C(=O)N3C(C(=O)[O-])=C(C[N+]45CCC(CNC(=O)c6ccc(O)c(O)c6Cl)(CC4)CC5)CS[C@H]23)cs1.[Na+].[Na+] (some centres unmarked) [Comparative Compound 2, reference compound]",> 32 µg/mL,0.5 µg/mL,0.5 µg/mL,1 µg/mL,> 32 µg/mL,0.5 µg/mL,32 µg/mL,4 µg/mL
CC(C)(O/N=C(\C(=O)N[C@@H]1C(=O)N2C(c3nnn[n-]3)=C(C[n+]3cccc4c3CCCN4C(=O)c3ccc(O)c(O)c3Cl)CS[C@H]12)c1nc(N)sc1Cl)C(=O)[O-].[Na+] [Compound I-28],0.5 µg/mL,0.5 µg/mL,0.125 µg/mL,0.5 µg/mL,≤ 0.031 µg/mL,0.125 µg/mL,1 µg/mL,1 µg/mL
CC(C)(O/N=C(\C(=O)N[C@@H]1C(=O)N2C(c3nnn[n-]3)=C(C[N+]3(C)[C@@H]4CC[C@H]3CC(NC(=O)c3cc(O)c(O)c(F)c3)C4)CS[C@H]12)c1nc(N)sc1Cl)C(=O)[O-].[Na+] (some centres unmarked) [Compound I-33],0.5 µg/mL,0.25 µg/mL,0.063 µg/mL,0.25 µg/mL,0.063 µg/mL,0.25 µg/mL,2 µg/mL,4 µg/mL
CC(C)(O/N=C(\C(=O)N[C@@H]1C(=O)N2C(c3nnn[n-]3)=C(C[n+]3ccc4cc(O)c(O)cc4c3)CS[C@H]12)c1nc(N)sc1Cl)C(=O)[O-].[Na+] [Compound I-37],0.25 µg/mL,≤ 0.031 µg/mL,≤ 0.031 µg/mL,0.063 µg/mL,≤ 0.031 µg/mL,0.063 µg/mL,0.25 µg/mL,0.5 µg/mL
Cc1cc2cc(O)c(O)cc2c[n+]1CC1=C(c2nnn[n-]2)N2C(=O)[C@@H](NC(=O)/C(=N\OC(C)(C)C(=O)[O-])c3nc(N)sc3Cl)[C@H]2SC1.[Na+] [Compound I-38],0.5 µg/mL,0.125 µg/mL,0.063 µg/mL,0.25 µg/mL,≤ 0.031 µg/mL,0.125 µg/mL,0.5 µg/mL,1 µg/mL
Nc1nc(/C(=N/O[C@@H](CC(=O)[O-])C(=O)[O-])C(=O)N[C@@H]2C(=O)N3C(c4nnn[n-]4)=C(C[N+]45CCC[C@H]4CN(C(=O)c4ccc(O)c(O)c4Cl)CC5)CS[C@H]23)cs1.[Na+].[Na+] (some centres unmarked) [Compound I-57],0.5 µg/mL,0.25 µg/mL,0.063 µg/mL,0.25 µg/mL,0.063 µg/mL,0.125 µg/mL,8 µg/mL,1 µg/mL
C[N+]1(CC2=C(c3nnn[n-]3)N3C(=O)[C@@H](NC(=O)/C(=N\O[C@@H](CC(=O)[O-])C(=O)[O-])c4csc(N)n4)[C@H]3SC2)CCN(C(=O)c2ccc(O)c(O)c2Cl)CC1.[Na+].[Na+] [Compound I-61],1 µg/mL,0.125 µg/mL,0.063 µg/mL,0.25 µg/mL,0.063 µg/mL,0.125 µg/mL,4 µg/mL,4 µg/mL
Nc1nc(/C(=N/O[C@@H](CC(=O)[O-])C(=O)[O-])C(=O)N[C@@H]2C(=O)N3C(c4nnn[n-]4)=C(C[N+]45CCC[C@H]4CN(C(=O)c4cc(O)c(O)c(F)c4)CC5)CS[C@H]23)cs1.[Na+].[Na+] (some centres unmarked) [Compound I-63],1 µg/mL,0.25 µg/mL,0.063 µg/mL,0.25 µg/mL,0.063 µg/mL,0.25 µg/mL,2 µg/mL,2 µg/mL
Nc1nc(/C(=N/O[C@@H](CC(=O)[O-])C(=O)[O-])C(=O)N[C@@H]2C(=O)N3C(c4nnn[n-]4)=C(C[n+]4ccc5cc(O)c(O)cc5c4)CS[C@H]23)cs1.[Na+].[Na+] [Compound I-65],0.125 µg/mL,≤ 0.031 µg/mL,≤ 0.031 µg/mL,≤ 0.031 µg/mL,≤ 0.031 µg/mL,≤ 0.031 µg/mL,0.25 µg/mL,0.5 µg/mL
CC(C)(O/N=C(\C(=O)N[C@@H]1C(=O)N2C(c3nnn[nH]3)=C(C[N+]3(C)CCN(C(=O)c4ccc(O)c(O)c4Cl)CC3)CS[C@H]12)c1nsc(N)n1)C(=O)O.[Na+] [Compound I-110],1 µg/mL,0.25 µg/mL,0.5 µg/mL,,0.063 µg/mL,0.25 µg/mL,8 µg/mL,0.5 µg/mL
CC(C)(O/N=C(\C(=O)N[C@@H]1C(=O)N2C(c3nnn[nH]3)=C(C[N@+]34CCC[C@H]3CN(C(=O)c3cc(O)c(O)c(F)c3)CC4)CS[C@H]12)c1nsc(N)n1)C(=O)[O-] [Compound I-111],1 µg/mL,0.25 µg/mL,1 µg/mL,,0.125 µg/mL,0.5 µg/mL,2 µg/mL,2 µg/mL
CC(C)(O/N=C(\C(=O)N[C@@H]1C(=O)N2C(c3nnn[nH]3)=C(C[N@+]34CCC[C@H]3CN(C(=O)c3ccc(O)c(O)c3Cl)CC4)CS[C@H]12)c1nsc(N)n1)C(=O)[O-] [Compound I-112],1 µg/mL,0.25 µg/mL,0.5 µg/mL,,0.063 µg/mL,0.5 µg/mL,4 µg/mL,2 µg/mL

# Results, then the molecule that gave them:
MIC (A. baumannii SR01331),MIC (E. cloacae NCTC13464),MIC (E. coli ATCCBAA-196),MIC (E. coli ATCCBAA-200),MIC (E. coli SR01337),MIC (K. pneumoniae ATCC700603),MIC (P. aeruginosa SR01332),MIC (P. aeruginosa SR01335),SMILES
0.5 µg/mL,0.063 µg/mL,≤ 0.031 µg/mL,0.063 µg/mL,≤ 0.031 µg/mL,0.125 µg/mL,4 µg/mL,2 µg/mL,CC(C)(O/N=C(\C(=O)N[C@@H]1C(=O)N2C(c3nnn[n-]3)=C(C[N@+]34CCC[C@H]3CN(C(=O)c3cc(O)c(O)c(Cl)c3)CC4)CS[C@H]12)c1nc(N)sc1Cl)C(=O)[O-].[Na+] [Compound I-29]
1 µg/mL,0.063 µg/mL,≤ 0.031 µg/mL,0.063 µg/mL,≤ 0.031 µg/mL,0.125 µg/mL,2 µg/mL,2 µg/mL,CC(C)(O/N=C(\C(=O)N[C@@H]1C(=O)N2C(c3nnn[n-]3)=C(C[N+]3(CCNC(=O)c4cc(O)c(O)c(Cl)c4)CCCC3)CS[C@H]12)c1nc(N)sc1Cl)C(=O)[O-].[Na+] [Compound I-30]
0.5 µg/mL,0.125 µg/mL,0.063 µg/mL,0.25 µg/mL,≤ 0.031 µg/mL,0.125 µg/mL,1 µg/mL,1 µg/mL,CC(C)(O/N=C(\C(=O)N[C@@H]1C(=O)N2C(c3nnn[n-]3)=C(C[n+]3ccc(CNC(=O)c4ccc(O)c(O)c4Cl)cc3)CS[C@H]12)c1nc(N)sc1Cl)C(=O)[O-].[Na+] [Compound I-31]
0.25 µg/mL,0.063 µg/mL,≤ 0.031 µg/mL,0.063 µg/mL,≤ 0.031 µg/mL,≤ 0.031 µg/mL,4 µg/mL,1 µg/mL,CC(C)(O/N=C(\C(=O)N[C@@H]1C(=O)N2C(c3nnn[n-]3)=C(C[N+]3(CCNC(=O)c4ccc(O)c(O)c4Cl)CCCCC3)CS[C@H]12)c1nc(N)sc1Cl)C(=O)[O-].[Na+] [Compound I-32]
1 µg/mL,0.5 µg/mL,0.063 µg/mL,0.25 µg/mL,≤ 0.031 µg/mL,0.5 µg/mL,4 µg/mL,2 µg/mL,CC(C)(O/N=C(\C(=O)N[C@@H]1C(=O)N2C(c3nnn[n-]3)=C(C[N@+]34CCC[C@H]3CN(C(=O)c3cc(O)c(O)c(F)c3)CC4)CS[C@H]12)c1nc(N)sc1Cl)C(=O)[O-].[Na+] [Compound I-34]
0.5 µg/mL,0.125 µg/mL,≤ 0.031 µg/mL,0.25 µg/mL,≤ 0.031 µg/mL,0.5 µg/mL,0.5 µg/mL,4 µg/mL,CC(C)(O/N=C(\C(=O)N[C@@H]1C(=O)N2C(c3nnn[n-]3)=C(C[n+]3ccc(NC(=O)c4ccc(O)c(O)c4Cl)cc3)CS[C@H]12)c1nc(N)sc1Cl)C(=O)[O-].[Na+] [Compound I-36]
0.5 µg/mL,0.063 µg/mL,≤ 0.031 µg/mL,0.063 µg/mL,≤ 0.031 µg/mL,≤ 0.031 µg/mL,4 µg/mL,1 µg/mL,Nc1nc(/C(=N/O[C@@H](CC(=O)[O-])C(=O)[O-])C(=O)N[C@@H]2C(=O)N3C(c4nnn[n-]4)=C(C[N+]4(CCNC(=O)c5cc(Cl)c(O)c(O)c5Cl)CCCC4)CS[C@H]23)cs1.[Na+].[Na+] [Compound I-60]

# — patent publication US9334289B2, “Cephem compound having catechol or pseudo-catechol structure” (SHIONOGI & CO., LTD., priority 2011, dated 2016)
